Values after ≈ are worked out from the molar mass of the structure shown. Counter-ions that a name gives are not always drawn. Like-named read-outs stand apart in the source and are kept apart here.
Experiments:
[1] = system: E. coli B90; test: Test A antibacterial assay, standard microtitration (MIC); format: cell-based; conditions: Escherichia coli, Gram negative, read-out: Minimum Inhibitory Concentrations, E. coli B90
Protocol: (§1) The compounds of the present invention were tested against an assortment of Gram-negative and Gram-positive organisms using standard microtitration techniques (Cohen, et al., Antimicrob. Agents Chemother., 1985;28:766; Heifetz, et al., Antimicrob. Agents Chemother., 1974;6:124). […]

[2] = system: E. coli MC 4100; test: as above; format: cell-based; conditions: Escherichia coli, MC4100; Gram negative; read-out: Minimum Inhibitory Concentrations, E. coli MC 4100
Protocol: as §1

[3] = system: E. coli Tol C; test: as above; format: cell-based; conditions: Escherichia coli, read-out: Minimum Inhibitory Concentrations, E. coli Tol C
Protocol: as §1

[4] = system: E. faecalis RB1; test: as above; format: cell-based; conditions: Enterococcus faecalis, Gram positive, read-out: Minimum Inhibitory Concentrations, E. faecalis RB1
Protocol: as §1

[5] = system: S. aureus 29213; test: as above; format: cell-based; conditions: Staphylococcus aureus, Gram positive, read-out: Minimum Inhibitory Concentrations, S. aureus 29213
Protocol: as §1

[6] = system: S. pyogenes C203; test: as above; format: cell-based; conditions: Streptococcus pyogenes, Gram positive, read-out: Minimum Inhibitory Concentrations, S. pyogenes C203
Protocol: as §1

[7] = biological target: E. coli gyrase (Escherichia coli, UniProt P0AES4+P0AES6); test: biochemical; conditions: supercoiling of relaxed pBR322, 30 minutes at 37° C.
[8] = system: S. pyogenes; test: In vivo median protective dose in mice given lethal systemic infections; conditions: lethal systemic infection
[9] = system: N. gonorrhoeae 2637; test: Test C cross resistance antibacterial assay (MIC); format: cell-based, Neisseria gonorrhoeae
[10] = system: N. gonorrhoeae 2709; test: Test C cross resistance antibacterial assay (MIC); format: cell-based; conditions: Neisseria gonorrhoeae, 2709, read-out: Minimum Inhibitory Concentrations, N. g. 2709
[11] = system: S. aureus 2552; test: Test C cross resistance antibacterial assay (MIC); format: cell-based
Protocol: (§2) The compounds of the present invention were tested against an assortment of ciprofloxacin resistant E. coli and S. aureus organisms described below using standard microtitration techniques (Cohen, et al., Antimicrob. Agents Chemother., 1985;28:766; Heifetz, et al., Antimicrob. Agents Chemother., 1974;6:124).

[12] = system: S. aureus UC-76; test: Test C cross resistance antibacterial assay (MIC); format: cell-based; conditions: Staphylococcus aureus
Protocol: as §2

[13] = Neisseria gonorrhoeae, 2637, derivative of MS11, parent strain, read-out: Minimum Inhibitory Concentrations, N. g. 2637
[14] = Staphylococcus aureus, 2552, upregulated norA pump, read-out: Minimum Inhibitory Concentrations, S. aureus 2552
[15] = UC76, wild type sensitive strain, read-out: Minimum Inhibitory Concentrations, S. aureus UC-76

Chain of E. coli gyrase (P0AES4 whole entry, one chain of several): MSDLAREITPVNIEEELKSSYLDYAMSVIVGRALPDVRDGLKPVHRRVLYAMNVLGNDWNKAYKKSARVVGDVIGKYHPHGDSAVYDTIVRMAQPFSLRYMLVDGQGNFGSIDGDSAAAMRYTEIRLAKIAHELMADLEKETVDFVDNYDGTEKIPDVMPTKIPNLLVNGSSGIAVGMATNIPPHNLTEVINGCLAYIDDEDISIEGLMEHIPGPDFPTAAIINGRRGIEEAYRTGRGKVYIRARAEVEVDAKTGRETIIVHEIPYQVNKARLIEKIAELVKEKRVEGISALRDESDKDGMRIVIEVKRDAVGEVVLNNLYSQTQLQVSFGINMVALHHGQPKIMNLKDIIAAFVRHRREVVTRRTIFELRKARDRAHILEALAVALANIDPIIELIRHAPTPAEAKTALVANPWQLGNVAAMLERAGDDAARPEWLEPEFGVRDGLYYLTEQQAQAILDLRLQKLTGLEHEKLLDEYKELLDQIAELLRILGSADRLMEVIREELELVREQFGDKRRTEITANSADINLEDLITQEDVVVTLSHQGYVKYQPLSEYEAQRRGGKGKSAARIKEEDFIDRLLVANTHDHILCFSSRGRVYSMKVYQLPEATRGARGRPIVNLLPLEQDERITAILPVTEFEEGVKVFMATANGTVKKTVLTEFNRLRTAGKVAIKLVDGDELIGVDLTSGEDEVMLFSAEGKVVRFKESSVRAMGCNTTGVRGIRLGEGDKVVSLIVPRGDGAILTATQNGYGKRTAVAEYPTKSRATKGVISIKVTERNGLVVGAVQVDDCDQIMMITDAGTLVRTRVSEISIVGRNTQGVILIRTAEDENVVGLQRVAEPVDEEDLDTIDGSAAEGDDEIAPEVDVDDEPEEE

| Compound | MIC [1] [µg/mL] | MIC [2] [µg/mL] | MIC [3] [µg/mL] | MIC [4] [µg/mL] | MIC [5] [µg/mL] | MIC [6] [µg/mL] | IC50 [7] [µM] | In Vivo Median Protective Dose (PD50) in Mice (PO) [8] [mg/kg] | MIC [9, 13] [µg/mL] | MIC [10] [µg/mL] | MIC [11, 14] [µg/mL] | MIC [12, 15] [µg/mL] | melting point [°C] | MIC ([9]; Neisseria gonorrhoeae, 2637, read-out: Minimum Inhibitory Concentrations, N. g. 2637) [µg/mL] | MIC ([11]; Staphylococcus aureus, 2552, read-out: Minimum Inhibitory Concentrations, S. aureus 2552) [µg/mL] | MIC ([12]; UC76, read-out: Minimum Inhibitory Concentrations, S. aureus UC-76) [µg/mL] |
| --- | --- | --- | --- | --- | --- | --- | --- | --- | --- | --- | --- | --- | --- | --- | --- | --- |
| CN[C@@H](C)[C@@H]1CCN(c2c(F)cn3c(=O)n(N)c(=O)c(C4CC4)c3c2C)C1 [Compound 4f, 2-Amino-4-cyclopropyl-7-fluoro-5-methyl-6-[3-(1-methylaminoethyl)pyrrolidin-1-yl]pyrido[1,2-c]pyrimidine-1,3-dione] | 0.13 (≈ 0.346 µM) | 2 (≈ 5.33 µM) | 0.03 (≈ 0.0799 µM) | 0.06 (≈ 0.16 µM) | 0.25 (≈ 0.666 µM) | 0.015 (≈ 0.04 µM) | 1 | 1.2 | 0.25 (≈ 0.666 µM) | 0.5 (≈ 1.33 µM) | 0.5 (≈ 1.33 µM) | 0.06 (≈ 0.16 µM) | – | – | – | – |
| Cc1c(N2C[C@H](CN)[C@H](F)C2)c(F)cn2c(=O)n(N)c(=O)c(C3CC3)c12 (racemic) [Compound 4j, 2-Amino-6-((3S,4S) and (3R,4R)-3-aminomethyl-4-fluoropyrrolidin-1-yl)-4-cyclopropyl-7-fluoro-5-methylpyrido[1,2-c]pyrimidine-1,3-dione] | 0.25 (≈ 0.684 µM) | 2 (≈ 5.47 µM) | 0.13 (≈ 0.356 µM) | 0.5 (≈ 1.37 µM) | – | 0.03 (≈ 0.0821 µM) | 1.5 | – | – | – | – | – | – | – | – | – |
| Cc1c(N2CCC(C(C)O)C2)c(F)cn2c(=O)n(N)c(=O)c(C3CC3)c12 (stereo not shown) [Compound 4h] | 0.13 (≈ 0.359 µM) | 16 (≈ 44.1 µM) | < 0.06 | 2 (≈ 5.52 µM) | 0.5 (≈ 1.38 µM) | 2 (≈ 5.52 µM) | 1.2 | – | – | – | 1 (≈ 2.76 µM) | 0.5 (≈ 1.38 µM) | 172 to 174 | – | – | – |
| Cc1c(N2CCC(N)C2)c(F)cn2c(=O)n(N)c(=O)c(C3CC3)c12.Cl (stereo not shown) | – | – | – | – | – | – | – | – | – | – | – | – | 246 to 248 | – | – | – |
| O=C(O)c1cn(C2CC2)c2cc(N3CCNCC3)c(F)cc2c1=O [Ciprofloxacin, ciprofloxacin, reference compound] | < 0.01 | < 0.02 | < 0.01 | 0.5 (≈ 1.51 µM) | 0.5 (≈ 1.51 µM) | 0.5 (≈ 1.51 µM) | – | >100 | – | 0.06 (≈ 0.181 µM) | – | – | – | 0.002 (≈ 0.00604 µM) | 2 (≈ 6.04 µM) | 0.13 (≈ 0.392 µM) |
| Cc1c(N2CC(C(C)N)C(C)(C)C2)c(F)cn2c(=O)n(N)c(=O)c(C3CC3)c12 (stereo not shown) [Compound 5c, 2-Amino-6-[4-(1-amino-ethyl)-3,3-dimethylpyrrolidin-1-yl]-4-cyclopropropyl-7-fluoro-5-methyl-pyrido[1,2-c]pyrimidine-1,3-dione, hydrochloride] | 2 | 16 | 0.5 | 2 | 2 | 0.5 | 0.7 | – | – | – | – | – | – | – | – | – |
| Cc1c(N2CC[C@@H]([C@@H](C)N)C2)c(F)cn2c(=O)n(N)c(=O)c(C3CC3)c12.Cl | – | – | – | – | – | – | – | – | – | – | – | – | 218 to 221 | – | – | – |
| Cc1c(N2CC[C@@H]([C@H](C)N)C2)c(F)cn2c(=O)n(N)c(=O)c(C3CC3)c12.Cl [Compound 5b, 2-Amino-6-[(R)-3-((S)-1-aminoethyl)pyrrolidin-1-yl]-4-cyclopropyl-7-fluoro-5-methyl-pyrido[1,2-c]pyrimidine-1,3-dione, hydrochloride] | 0.06 | 0.5 | 0.03 | 0.13 | 0.25 | 0.008 | 0.5 | – | 0.13 | 0.25 | 0.25 | 0.06 | 218 to 220 | – | – | – |
| Cc1c(N2CC(C)C(C(C)N)C2)c(F)cn2c(=O)n(N)c(=O)c(C3CC3)c12.Cl (stereo not shown) | – | – | – | – | – | – | – | – | – | – | – | – | 238 to 240 | – | – | – |
| Cc1c(N2CCCC2)c(F)cn2c(=O)n(N)c(=O)c(C3CC3)c12 [Compound 4g, 2-Amino-4-cyclopropyl-7-fluoro-5-methyl-6-pyrrolidin-1-yl-pyrido[1,2-c]pyrimidine-1,3-dione] | 0.25 (≈ 0.785 µM) | 16 (≈ 50.3 µM) | < 0.06 | 2 (≈ 6.28 µM) | 1 (≈ 3.14 µM) | 1 (≈ 3.14 µM) | 1.7 | – | – | – | – | – | 202 to 204 | – | – | – |
| Cc1c(N2CC[C@@H](C3(N)CC3)C2)c(F)cn2c(=O)n(N)c(=O)c(C3CC3)c12 [Compound 4i, 2-Amino-6-[(R)-3-(1-aminocyclopropyl)pyrrolidin-1-yl]-4-cyclopropyl-7-fluoro-5-methylpyrido[1,2-c]pyrimidine-1,3-dione] | 0.03 (≈ 0.0803 µM) | 0.5 (≈ 1.34 µM) | 0.015 (≈ 0.0402 µM) | 0.06 (≈ 0.161 µM) | 0.06 (≈ 0.161 µM) | 0.015 (≈ 0.0402 µM) | 0.64 | 2.1 | 0.03 (≈ 0.0803 µM) | 0.13 (≈ 0.348 µM) | 0.06 (≈ 0.161 µM) | 0.06 (≈ 0.161 µM) | – | – | – | – |
| Cc1c(N2CC(C(C)N)C(C)(C)C2)c(F)cn2c(=O)n(N)c(=O)c(C3CC3)c12 (stereo not shown) (as salt: hydrochloride) [Compound 5c, 2-Amino-6-[4-(1-amino-ethyl)-3,3-dimethylpyrrolidin-1-yl]-4-cyclopropropyl-7-fluoro-5-methyl-pyrido[1,2-c]pyrimidine-1,3-dione, hydrochloride] | – | – | – | – | – | – | – | – | – | – | – | – | 238 to 240 | – | – | – |
